Source: patent US7211577B2, “Water-soluble phenylpyridazine derivative and medicine containing the same” (Kowa Co., Ltd., priority 2003, dated 2007)

Q: With `CC(C)Cn1nc(-c2ccc(F)c(F)c2)cc(CN2CCNCC2)c1=O.Cl.Cl` as the molecule, how does the melting point read?
A: 182.5 to 186 °C

Q: Which melting point does the source give for `CC(C)Cn1nc(-c2ccc(F)c(F)c2)cc(CN2CCN(C)CC2)c1=O.Cl.Cl` here?
A: 242.5 to 243.4 °C

Q: With `Cc1cc(-c2cc(CN3CCNCC3)c(=O)n(Cc3ccccc3)n2)ccc1F.Cl.Cl` as the molecule, how does the melting point read?
A: 162.7 to 180.7 °C (dec.)

Q: Which melting point does the source give for `Cc1cc(-c2cc(CN3CCN(C)CC3)c(=O)n(Cc3ccccc3)n2)ccc1F.Cl.Cl` here?
A: 240 to 242.5 °C (dec.)

Q: Which melting point does the source give for `Cc1cc(-c2cc(CN(C)C)c(=O)n(Cc3ccccc3)n2)ccc1F.Cl` here?
A: 225.3 to 226 °C

Q: Which melting point does the source give for `Cc1cc(-c2cc(CN3CCNCC3)c(=O)n(CC=Cc3ccccc3)n2)ccc1F.Cl.Cl` here?
A: 171.1 to 187.1 °C (dec.)

Q: Which melting point does the source give for `Cc1cc(-c2cc(CN3CCN(C)CC3)c(=O)n(CC=Cc3ccccc3)n2)ccc1F.Cl.Cl` here?
A: 236.1 to 237.1 °C

Q: Which melting point does the source give for `Cc1cc(-c2cc(CN(C)C)c(=O)n(CC=Cc3ccccc3)n2)ccc1F.Cl` here?
A: 183.6 to 184.5 °C

Q: For `CSc1ccc(-c2cc(CN3CCNCC3)c(=O)n(CC(C)C)n2)cc1.Cl.Cl`, which melting point is on record?
A: 248.5 to 253.7 °C (dec.)

Q: For `CSc1ccc(-c2cc(CN3CCN(C)CC3)c(=O)n(CC(C)C)n2)cc1.Cl.Cl`, which melting point is on record?
A: 242.6 to 243.7 °C

Q: With `CC(C)Cn1nc(-c2ccc([S+](C)[O-])cc2)cc(CN2CCN(C)CC2)c1=O.Cl.Cl` (stereo not drawn) as the molecule, how does the melting point read?
A: 224.5 to 229.1 °C (dec.)

Q: With `CC(C)Cn1nc(-c2ccc([S+](C)[O-])cc2)cc(CN(C)C)c1=O.Cl` (stereo not drawn) as the molecule, how does the melting point read?
A: 204.2 to 206 °C

Q: Which melting point does the source give for `CN1CCN(Cc2cc(-c3ccc(S(C)(=O)=O)cc3)nn(CC3CC3)c2=O)CC1.Cl.Cl` here?
A: 209 to 211.4 °C

Q: Which melting point does the source give for `CN(C)Cc1cc(-c2ccc(S(C)(=O)=O)cc2)nn(CC2CC2)c1=O.Cl` here?
A: 239.5 to 240.7 °C

Q: For `CC(C)Cn1nc(-c2ccc(S(C)(=O)=O)cc2)cc(CN2CCNCC2)c1=O.Cl.Cl`, which melting point is on record?
A: 222.4 to 224.2 °C

Q: With `Cc1ccc(-c2cc(CN3CCNCC3)c(=O)n(CC(C)C)n2)cc1F.Cl.Cl` as the molecule, how does the melting point read?
A: 186.2 to 195 °C (dec.)

Q: For `Cc1cc(-c2cc(CN3CCN(C)CC3)c(=O)n(Cc3ccc(Cl)cc3)n2)ccc1F.Cl.Cl`, which melting point is on record?
A: 246.4 to 249.7 °C (dec.)

Q: For `Cc1cc(-c2cc(CN3CCN(C)CC3)c(=O)n(Cc3ccccc3Cl)n2)ccc1F.Cl.Cl`, which melting point is on record?
A: 191 to 202 °C (dec.)

Q: Which melting point does the source give for `COc1ccc(-c2cc(CN3CCNCC3)c(=O)n(CC(C)C)n2)cc1F.Cl.Cl` here?
A: 163 to 177 °C (dec.)

Q: Which melting point does the source give for `COc1ccc(-c2cc(CN3CCN(C)CC3)c(=O)n(CC(C)C)n2)cc1F.Cl.Cl` here?
A: 236.9 to 237 °C

Q: With `COc1ccc(-c2cc(CN(C)C)c(=O)n(CC(C)C)n2)cc1F.Cl` as the molecule, how does the melting point read?
A: 212.4 to 212.8 °C

Q: Which melting point does the source give for `Cc1c(-c2ccccc2)nn(CC(C)C)c(=O)c1N1CCNCC1.Cl.Cl` here?
A: 154.3 to 159.5 °C

Q: With `CC(C)Cn1nc(-c2ccccc2)cc(CN2CCN(C)CC2)c1=O.Cl.Cl` as the molecule, how does the melting point read?
A: 243.8 to 244.3 °C

Q: Which melting point does the source give for `Cc1ccc(-c2cc(CN3CCN(C)CC3)c(=O)n(CC(C)C)n2)cc1F.Cl.Cl` here?
A: 248.5 to 252 °C (dec.)

Q: With `CC(C)Cn1nc(-c2ccccc2)cc(CN(C)C)c1=O.Cl` as the molecule, how does the melting point read?
A: 221.7 to 222.3 °C

Q: Which melting point does the source give for `CC(C)Cn1nc(-c2ccc(C(F)(F)F)cc2)cc(CN2CCNCC2)c1=O.Cl.Cl` here?
A: 210.8 to 212.5 °C

Q: With `Cc1c(-c2ccc(C(F)(F)F)cc2)nn(CC(C)C)c(=O)c1N1CCN(C)CC1.Cl.Cl` as the molecule, how does the melting point read?
A: 249.9 to 252.8 °C

Q: Which melting point does the source give for `CC(C)Cn1nc(-c2ccc(C(F)(F)F)cc2)cc(CN(C)C)c1=O.Cl` here?
A: 242.2 to 242.3 °C

Q: Which melting point does the source give for `CC(C)Cn1nc(-c2ccc(-c3ccccc3)cc2)cc(CN2CCNCC2)c1=O.Cl.Cl` here?
A: 226.8 to 228 °C

Q: With `CC(C)Cn1nc(-c2ccc(-c3ccccc3)cc2)cc(CN2CCN(C)CC2)c1=O.Cl.Cl` as the molecule, how does the melting point read?
A: 262.2 to 263.6 °C

Q: Which melting point does the source give for `CC(C)Cn1nc(-c2ccc(-c3ccccc3)cc2)cc(CN(C)C)c1=O.Cl` here?
A: 243.9 to 244.1 °C

Q: Which melting point does the source give for `COc1ccc(-c2cc(CN3CCNCC3)c(=O)n(CC(C)C)n2)cc1Cl.Cl.Cl` here?
A: 203.6 to 204.5 °C

Q: For `COc1ccc(-c2cc(CN(C)C)c(=O)n(CC(C)C)n2)cc1Cl.Cl`, which melting point is on record?
A: 213.6 to 214.3 °C
